From ChEMBL document CHEMBL5214900, “Design, Synthesis, and Biological Evaluation of Membrane-Active Bakuchiol Derivatives as Effective Broad-Spectrum Antibacterial Agents” (J Med Chem, 2021)
≈ marks a conversion by molar mass, not a printed value.

Assays:
Staphylococcus aureus [1] = assay: Antibacterial activity against Staphylococcus aureus ATCC 29213 assessed as inhibition of bacterial growth incubated for 24 hrs by CLSI based broth dilution method; format: functional
Acinetobacter baumannii [2] = assay: Antibacterial activity against Acinetobacter baumannii R2889 assessed as inhibition of bacterial growth incubated for 24 hrs by CLSI based broth dilution method; format: functional
Pseudomonas aeruginosa = assay: Antibacterial activity against Pseudomonas aeruginosa ATCC 9027 assessed as inhibition of bacterial growth incubated for 24 hrs by CLSI based broth dilution method; format: functional
Klebsiella pneumoniae [3] = assay: Antibacterial activity against Klebsiella pneumoniae ATCC 14581 assessed as inhibition of bacterial growth incubated for 24 hrs by CLSI based broth dilution method; format: functional
Staphylococcus aureus [4] = assay: Antibacterial activity against methicillin-resistant Staphylococcus aureus N315 assessed as inhibition of bacterial growth incubated for 24 hrs by CLSI based broth dilution method; format: functional
Staphylococcus aureus [5] = assay: Antibacterial activity against methicillin-resistant Staphylococcus aureus NCTC10442 assessed as inhibition of bacterial growth incubated for 24 hrs by CLSI based broth dilution method; format: functional
Acinetobacter baumannii [6] = assay: Antibacterial activity against Acinetobacter baumannii ATCC 17978 assessed as inhibition of bacterial growth incubated for 24 hrs by CLSI based broth dilution method; format: functional
Escherichia coli [7] = assay: Antibacterial activity against Escherichia coli ATCC 25922 assessed as inhibition of bacterial growth incubated for 24 hrs by CLSI based broth dilution method; format: functional
Klebsiella pneumoniae [8] = assay: Antibacterial activity against Klebsiella pneumoniae ATCC 10031 assessed as inhibition of bacterial growth incubated for 24 hrs by CLSI based broth dilution method; format: functional
[9] = Hemolytic activity in rabbit RBC measured after 1 hrs by multimode reader assay; format: toxicity, cell-based, Oryctolagus cuniculus, Erythrocyte; conditions: rabbit red blood cells (erythrocytes)
Escherichia coli [10] = assay: Antibacterial activity against Escherichia coli ATCC 25922 assessed as fold increase in MIC incubated for 24 hrs in presence of 2.5 mM Ca2+ by CLSI based broth dilution method; format: functional
Acinetobacter baumannii [11] = assay: Antibacterial activity against Acinetobacter baumannii ATCC 17978 assessed as fold increase in MIC incubated for 24 hrs in presence of 140 mM Na+ by CLSI based broth dilution method; format: functional
Escherichia coli [12] = assay: Antibacterial activity against Escherichia coli ATCC 25922 assessed as fold increase in MIC incubated for 24 hrs in presence of 4.5 mM K+ by CLSI based broth dilution method; format: functional
Staphylococcus aureus [13] = assay: Antibacterial activity against Staphylococcus aureus NCTC10442 assessed as fold increase in MIC incubated for 24 hrs in presence of 1 mM Mg2+ by CLSI based broth dilution method; format: functional
Staphylococcus aureus [14] = assay: Antibacterial activity against Staphylococcus aureus ATCC 29213 assessed as fold increase in MIC incubated for 24 hrs in presence of 4.5 mM K+ by CLSI based broth dilution method; format: functional
Escherichia coli [15] = assay: Antibacterial activity against Escherichia coli ATCC 25922 assessed as fold increase in MIC incubated for 24 hrs in presence of 140 mM Na+ by CLSI based broth dilution method; format: functional
Staphylococcus aureus [16] = assay: Antibacterial activity against Staphylococcus aureus NCTC10442 assessed as fold increase in MIC incubated for 24 hrs in presence of 4.5 mM K+ by CLSI based broth dilution method; format: functional
Staphylococcus aureus [17] = assay: Antibacterial activity against Staphylococcus aureus NCTC10442 assessed as fold increase in MIC incubated for 24 hrs in presence of 140 mM Na+ by CLSI based broth dilution method; format: functional
Acinetobacter baumannii [18] = assay: Antibacterial activity against Acinetobacter baumannii ATCC 17978 assessed as fold increase in MIC incubated for 24 hrs in presence of 4.5 mM K+ by CLSI based broth dilution method; format: functional
Staphylococcus aureus [19] = assay: Antibacterial activity against Staphylococcus aureus NCTC10442 assessed as fold increase in MIC incubated for 24 hrs in presence of 2.5 mM Ca2+ by CLSI based broth dilution method; format: functional
Acinetobacter baumannii [20] = assay: Antibacterial activity against Acinetobacter baumannii ATCC 17978 assessed as fold increase in MIC incubated for 24 hrs in presence of 1 mM Mg2+ by CLSI based broth dilution method; format: functional
Acinetobacter baumannii [21] = assay: Antibacterial activity against Acinetobacter baumannii ATCC 17978 assessed as fold increase in MIC incubated for 24 hrs in presence of 2.5 mM Ca2+ by CLSI based broth dilution method; format: functional
Escherichia coli [22] = assay: Antibacterial activity against Escherichia coli ATCC 25922 assessed as fold increase in MIC incubated for 24 hrs in presence of 1 mM Mg2+ by CLSI based broth dilution method; format: functional
Staphylococcus aureus [23] = assay: Antibacterial activity against Staphylococcus aureus ATCC 29213 assessed as fold increase in MIC incubated for 24 hrs in presence of 140 mM Na+ by CLSI based broth dilution method; format: functional
Staphylococcus aureus [24] = assay: Antibacterial activity against Staphylococcus aureus ATCC 29213 assessed as fold increase in MIC incubated for 24 hrs in presence of 2.5 mM Ca2+ by CLSI based broth dilution method; format: functional
Staphylococcus aureus [25] = assay: Antibacterial activity against Staphylococcus aureus ATCC 29213 assessed as fold increase in MIC incubated for 24 hrs in presence of 1 mM Mg2+ by CLSI based broth dilution method; format: functional
[26] = Dissociation constant, pKa of compound by potentiometric titration method; format: physicochemical

SMILES	MIC (Staphylococcus aureus [1])	MIC (Acinetobacter baumannii [2])	MIC (Pseudomonas aeruginosa)	MIC (Klebsiella pneumoniae [3])	MIC (Staphylococcus aureus [4])	MIC (Staphylococcus aureus [5])	MIC (Acinetobacter baumannii [6])	MIC (Escherichia coli [7])	MIC (Klebsiella pneumoniae [8])	HC50 at 1 h [9]	fold change (FC) (Escherichia coli [10])	fold change (FC) (Acinetobacter baumannii [11])	fold change (FC) (Escherichia coli [12])	fold change (FC) (Staphylococcus aureus [13])	fold change (FC) (Staphylococcus aureus [14])	fold change (FC) (Escherichia coli [15])	fold change (FC) (Staphylococcus aureus [16])	fold change (FC) (Staphylococcus aureus [17])	fold change (FC) (Acinetobacter baumannii [18])	fold change (FC) (Staphylococcus aureus [19])	also measured
C=C[C@@](C)(/C=C/c1ccc(OCCCCN(C)CCCNC)cc1)CCC=C(C)C	1.56 µg/mL (≈ 3.78 µM)	6.25 µg/mL (≈ 15.1 µM)	6.25 µg/mL (≈ 15.1 µM)	3.12 µg/mL (≈ 7.57 µM)	0.78 µg/mL (≈ 1.89 µM)	1.56 µg/mL (≈ 3.78 µM)	1.56 µg/mL (≈ 3.78 µM)	1.56 µg/mL (≈ 3.78 µM)	3.12 µg/mL (≈ 7.57 µM)	37.4 µg/mL											
C=C[C@@](C)(/C=C/c1ccc(OCCCCNCCN(CCN)CCN)cc1)CCC=C(C)C	0.78 µg/mL (≈ 1.71 µM)	6.25 µg/mL (≈ 13.7 µM)	3.12 µg/mL (≈ 6.84 µM)	1.56 µg/mL (≈ 3.42 µM)	0.78 µg/mL (≈ 1.71 µM)	0.78 µg/mL (≈ 1.71 µM)	6.25 µg/mL (≈ 13.7 µM)	3.12 µg/mL (≈ 6.84 µM)	1.56 µg/mL (≈ 3.42 µM)	32.9 µg/mL	<2	<2	<2	<2	<2	<2	<2	<2	<2	<2	fold change (FC) (Acinetobacter baumannii [20]): <2; fold change (FC) (Acinetobacter baumannii [21]): <2; fold change (FC) (Escherichia coli [22]): <2; fold change (FC) (Staphylococcus aureus [23]): <2; fold change (FC) (Staphylococcus aureus [24]): <2; fold change (FC) (Staphylococcus aureus [25]): <2
C=C[C@@](C)(/C=C/c1ccc(OCCCCN2CCCNCCNCCCNCC2)cc1)CCC=C(C)C	0.78 µg/mL (≈ 1.53 µM)	3.12 µg/mL (≈ 6.12 µM)	12.5 µg/mL (≈ 24.5 µM)	3.12 µg/mL (≈ 6.12 µM)	0.78 µg/mL (≈ 1.53 µM)	0.78 µg/mL (≈ 1.53 µM)	3.12 µg/mL (≈ 6.12 µM)	3.12 µg/mL (≈ 6.12 µM)	1.56 µg/mL (≈ 3.05 µM)	62.7 µg/mL	<2	<2	<2	<2	<2	<2	<2	<2	<2	<2	fold change (FC) (Acinetobacter baumannii [20]): <2; fold change (FC) (Acinetobacter baumannii [21]): <2; fold change (FC) (Escherichia coli [22]): <2; fold change (FC) (Staphylococcus aureus [23]): <2; fold change (FC) (Staphylococcus aureus [24]): <2; fold change (FC) (Staphylococcus aureus [25]): <2
C=C[C@@](C)(/C=C/c1ccc(OCCCCN(C)CCCN(C)CCCNC)cc1)CCC=C(C)C	1.56 µg/mL (≈ 3.22 µM)	3.12 µg/mL (≈ 6.46 µM)	3.12 µg/mL (≈ 6.46 µM)	1.56 µg/mL (≈ 3.22 µM)	0.78 µg/mL (≈ 1.61 µM)	1.56 µg/mL (≈ 3.22 µM)	3.12 µg/mL (≈ 6.46 µM)	1.56 µg/mL (≈ 3.22 µM)	1.56 µg/mL (≈ 3.22 µM)	56.6 µg/mL	<2	<2	<2	<2	<2	<2	<2	<2	<2	<2	fold change (FC) (Acinetobacter baumannii [20]): <2; fold change (FC) (Acinetobacter baumannii [21]): <2; fold change (FC) (Escherichia coli [22]): <2; fold change (FC) (Staphylococcus aureus [23]): <2; fold change (FC) (Staphylococcus aureus [24]): <2; fold change (FC) (Staphylococcus aureus [25]): <2
C=C[C@@](C)(/C=C/c1ccc(OCCCCNC(=N)N)cc1)CCC=C(C)C	3.12 µg/mL (≈ 8.46 µM)				1.56 µg/mL (≈ 4.22 µM)	3.12 µg/mL (≈ 8.46 µM)		25 µg/mL (≈ 67.6 µM)		75.7 µg/mL											pKa [26]: 11.4
C=C[C@@](C)(/C=C/c1ccc(OCCCCN2CCN(CCCN(C)C)CC2)cc1)CCC=C(C)C	1.56 µg/mL (≈ 3.24 µM)	6.25 µg/mL (≈ 13 µM)	50 µg/mL (≈ 104 µM)	1.56 µg/mL (≈ 3.24 µM)	0.78 µg/mL (≈ 1.62 µM)	3.12 µg/mL (≈ 6.49 µM)	6.25 µg/mL (≈ 13 µM)	3.12 µg/mL (≈ 6.49 µM)	1.56 µg/mL (≈ 3.24 µM)	52 µg/mL											
C=C[C@@](C)(/C=C/c1ccc(O)cc1)CCC=C(C)C [BAKUCHIOL]	6.25 µg/mL (≈ 24.4 µM)	> 50 µg/mL	> 50 µg/mL	> 50 µg/mL	3.12 µg/mL (≈ 12.2 µM)	3.12 µg/mL (≈ 12.2 µM)	> 50 µg/mL	> 100 µg/mL	12.5 µg/mL (≈ 48.8 µM)	89.7 µg/mL											
C=C[C@@](C)(/C=C/c1ccc(OCCCCNCCCCCCCC)cc1)CCC=C(C)C	6.25 µg/mL (≈ 14.2 µM)				1.56 µg/mL (≈ 3.55 µM)	3.12 µg/mL (≈ 7.11 µM)		> 100 µg/mL		> 200 µg/mL											
C=C[C@@](C)(/C=C/c1ccc(OCCCC[N+](C)(C)C)cc1)CCC=C(C)C.[I-]	0.78 µg/mL				0.78 µg/mL	0.78 µg/mL		6.25 µg/mL		34.2 µg/mL											
